Measurements from publication PMC7072815, “Nrp1 is Activated by Konjac Ceramide Binding-Induced Structural Rigidification of the a1a2 Domain” (Cells, 2020).

Target: T1, neuropilin 1 (Nrp1) (Mus musculus, UniProt P97333)
T1 construct: a1a2 domain (residues 23−269), His6-tag, pCold-ProS2 vector, E. coli
T1 sequence (P97333 23-269): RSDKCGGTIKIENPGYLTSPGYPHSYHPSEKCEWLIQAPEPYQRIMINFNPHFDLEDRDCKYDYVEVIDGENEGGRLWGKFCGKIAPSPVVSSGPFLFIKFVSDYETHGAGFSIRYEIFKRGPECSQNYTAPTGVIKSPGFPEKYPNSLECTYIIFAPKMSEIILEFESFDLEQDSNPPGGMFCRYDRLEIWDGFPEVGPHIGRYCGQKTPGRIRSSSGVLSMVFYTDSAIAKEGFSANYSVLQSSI
Experiment: quantitative fluorescent dot-blot saturation binding to purified a1a2

- Kd: 0.114 ± 0.005 µM
Substance: d4t,8t-NBD-Ceramide
